What was measured:
AJ 12360 (Mutant) = assay: Degree of AHV resistance (growth in glucose minimum liquid medium, absorbance); type: cell-based; conditions: [Brevibacterium] flavum, 24 h, read-out: Relative Degree of Growth (%)
Procedure: (§1) Thereafter, the degrees of AHV resistance of DPS deleted strains AJ 12360 and AJ 12361 were compared against their parent strains. The degree of AHV resistance was determined by cultivating the strain in the complete agar plate medium shown in Table 2 which also contained 1 g/l of DAP, […] of dipicolinic acid and further, in the case of AJ 12361 and its parent strain AC 664, 300 mg/l of L-histidine hydrochloride as a growth promoting substance, at 30° C. for 24 hours. The same medium dispensed in 3 ml into test tubes, was inoculated with the cells, and the inoculated media were cultured while being shaked for 24 hours. The absorbance of each medium was measured at 566 nm under conditions in which AHV was added or was not added to a given medium. To each glucose minimum liquid medium prepared were added, as growth promoting substances, 200 mg/l of L-histidine hydrochloride, in the case of AJ 12361 and AC 664 strains, and 500 mg/l each of DAP and lysine in the case of AJ 12360 and AJ 11955 strains. Especially, since DAP or DAP and lysine often promoted the growth of the DPS deleted or reduced strain, DAP was added to the liquid and plate media in the experiments described so far as needed. […]

AJ 12361 (Mutant) = assay: as above; type: cell-based; conditions: [Brevibacterium] flavum, 24 h, read-out: Relative Degree of Growth (%)
Procedure: as §1

Homoserine Dehydrogenase = Homoserine Dehydrogenase (Corynebacterium glutamicum, UniProt P08499); assay: Homoserine dehydrogenase feedback inhibition by threonine (crude enzyme solution); type: biochemical, Brevibacterium flavum; conditions: 1 mM threonine
Chain of Homoserine Dehydrogenase (P08499 whole entry): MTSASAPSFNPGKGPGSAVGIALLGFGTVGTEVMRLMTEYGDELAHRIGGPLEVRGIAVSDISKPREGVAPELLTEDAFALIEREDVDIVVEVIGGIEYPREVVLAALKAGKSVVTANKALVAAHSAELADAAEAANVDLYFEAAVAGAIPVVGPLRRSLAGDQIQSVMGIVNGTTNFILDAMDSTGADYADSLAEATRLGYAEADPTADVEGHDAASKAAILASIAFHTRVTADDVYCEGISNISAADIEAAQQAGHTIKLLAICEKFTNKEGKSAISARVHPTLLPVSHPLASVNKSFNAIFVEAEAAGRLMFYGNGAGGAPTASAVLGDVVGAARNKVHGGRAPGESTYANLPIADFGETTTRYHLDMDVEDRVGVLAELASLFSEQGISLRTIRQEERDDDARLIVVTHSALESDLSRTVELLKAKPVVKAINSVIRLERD
Procedure: The amount of threonine produced in a given fermentation experiment was measured by the method described below, and the amount of lysine produced was measured by an acidic ninhydrin method. Further, the DPS activity was measured as follows. A medium obtained by adding 1 g/l of DAP to a medium useful for threonine production shown in Table 3 was dispensed in 20 ml amounts into 500 ml flasks which could be shaken. The flasks were sterilized by autoclaving. The medium compositions used were N50S30 for the AJ 12360 strain and N25S35 for the AJ 12361-2 and DA 110 strains. Each medium was inoculated with one loop of the strain which had been previously cultivated in a complete agar plate medium shown in Table 2. Each medium was supplemented with 1 g/l of DAP and 300 mg/l of L-histidine hydrochloride at 30° C. for 24 hours, and culturing was conducted at 30° C. for 40 hours in the shaking flasks. The cells were collected and washed with a 0.2% potassium chloride solution. These washed cells were suspended in a 50 mM potassium phosphate buffer (pH 7.0), and then were centrifugally separated after ultrasonic treatment in a supernatant. The supernatant was gel filtered through a Sephadex G25 column using the same buffer to prepare a crude enzyme solution. The activity was measured by carrying out the reaction at 30° C. for 10 minutes, terminating the reaction by adding 1 ml of 0.05 N hydrochloric acid thereto, and then measuring the change in absorbance at 340 nm by using a reaction mixture shown in Table 8 to determine the amount of pyruvic acid consumed. The control for this reaction was a DL-aspartate-β-semialdehyde-free system. The HD activity was measured as follows. The crude enzyme solution was prepared in a manner similar to that employed in the above-described DPS activity measurement, except that a 0.1 M potassium phosphate buffer containing 0.5 M potassium chloride (pH 7.0) was used as the buffer instead of the 50 mM potassium phosphate buffer. The activity measurement was conducted by measuring the reduction in absorbance at 340 nm in the reaction system shown in Table 9. The control for this reaction was a DL-aspartate-β-semialdehyde-free system. […]

SMILES: CCC(O)C(N)C(=O)O (stereo not drawn) [AHV, α-amino-β-hydroxyvaleric acid]
- activity at 200000 µg/mL (AJ 12360 (Mutant)): 46.7%
- activity at 500000 µg/mL (AJ 12360 (Mutant)): 42.6%
- activity at 1 g/mL (AJ 12360 (Mutant)): 37.5%
- activity at 200000 µg/mL (AJ 12361 (Mutant)): 105%
- activity at 500000 µg/mL (AJ 12361 (Mutant)): 65.8%
- activity at 1 g/mL (AJ 12361 (Mutant)): 39.1%

SMILES: C[C@@H](O)[C@H](N)C(=O)O [threonine, L-threonine]
- Homoserine Dehydrogenase Feedback Inhibition (%)** (Homoserine Dehydrogenase; enzyme from strain AC 664 (Parent strain)): 98%
- Homoserine dehydrogenase feedback inhibition by threonine (%) (Homoserine Dehydrogenase; enzyme from strain AJ 11955 (parent strain)): 98%
- Homoserine dehydrogenase feedback inhibition by threonine (%) (Homoserine Dehydrogenase; enzyme from strain AJ 12360 (mutant)): 98%
- Homoserine Dehydrogenase Feedback Inhibition (%)** (Homoserine Dehydrogenase; enzyme from strain AJ 12361 (Mutant)): 98%
- Homoserine Dehydrogenase Feedback Inhibition (%)** (Homoserine Dehydrogenase; enzyme from strain AJ12362 (Mutant)): 96%
- Homoserine Dehydrogenase Feedback Inhibition (%)** (Homoserine Dehydrogenase; enzyme from strain AJ12363 (Mutant)): 16%
- Homoserine Dehydrogenase Feedback Inhibition (%)** (Homoserine Dehydrogenase; enzyme from strain DA 110 (Mutant)): 98%
